# Results reported in the supplement of paper PMC10307832.
# How the values were obtained:
# Experiment in all cases: relative viability (nuclei count vs DMSO), 5 days (fraction); higher = more cells survive
# AZ23 = compound: CC(C)Oc1cc(Nc2nc(N[C@@H](C)c3ccc(F)cn3)ncc2Cl)n[nH]1 [AZ23]
# In short: (§1)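 Five library-drug doses spaced by √10 were pinned onto vehicle-anchored 1536-well plates of lung cancer cell lines that had been kept overnight at 37 °C. Cells went 5 days without medium change, then were fixed, permeabilised and Hoechst-stained together, imaged at 4× and counted by MetaXpress. Viability is the ratio of treated-well to vehicle-well nuclei, taken as a median over plates. Plates required control CV below 25% and at least one doubling.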
# HG-5-88-01 = compound: CC(C)S(=O)(=O)C1=CC=CC=C1NC2=NC(=NC(=C2Cl)N)NC3=C(C=C(C=C3)N4CCC(CC4)C(=O)N)OC [HG-5-88-01]
# In short: as §1
# Embelin = compound: CCCCCCCCCCCC1=C(O)C(=O)C=C(O)C1=O [Embelin]
# In short: as §1
# [1] = compound: C[C@@H]1CN(CC(=O)Nc2ccc3c(c2)Cc2cccc(-c4cc(=O)cc(N5CCOCC5)o4)c2S3)C[C@H](C)O1
# In short: as §1
# Vatalanib = compound: Clc1ccc(Nc2nnc(Cc3ccncc3)c3ccccc23)cc1 [Vatalanib]
# In short: as §1
Cell Line,relative viability (AZ23; 0.03162 µM),relative viability (AZ23; 0.3162 µM),relative viability (HG-5-88-01; 0.04 µM),relative viability (HG-5-88-01; 0.1265 µM),relative viability (HG-5-88-01; 0.4 µM),relative viability (HG-5-88-01; 1.265 µM),relative viability (HG-5-88-01; 4 µM),relative viability (Embelin; 0.08 µM),relative viability (Embelin; 0.8 µM),relative viability (Embelin; 2.53 µM),relative viability (Embelin; 8 µM),relative viability ([1]; 0.04 µM),relative viability ([1]; 0.1265 µM),relative viability ([1]; 0.4 µM),relative viability ([1]; 4 µM),relative viability (Vatalanib; 0.04 µM),relative viability (Vatalanib; 0.1265 µM),relative viability (Vatalanib; 0.4 µM),relative viability (Vatalanib; 1.265 µM),relative viability (Vatalanib; 4 µM),relative viability (AZ23; 0.01 µM)
Calu-6,1.09,1.01,1.04,0.965,0.946,0.948,0.854,1.01,1.09,1.07,1.07,1.04,0.951,1.03,0.74,1.06,0.958,1.06,0.949,0.976,
ChaGo-K-1,1.09,1.04,1.02,1.03,0.936,1.03,0.841,1.06,1.01,1.05,0.983,0.826,0.961,0.967,0.979,0.87,0.983,1.01,0.962,1.06,1.2
EBC-1,1.12,0.931,1.02,0.851,0.98,0.933,0.901,1,1.11,1.02,0.979,1.02,0.952,0.712,0.535,1.06,0.895,1.06,0.955,0.896,1.04
EKVX,1.11,0.976,0.923,1.02,0.875,,0.934,0.966,1.02,0.964,1.03,0.975,0.971,0.898,0.882,0.934,0.849,0.975,0.818,0.871,0.932
EMC-BAC-2,1.08,0.986,0.977,1.04,0.85,0.93,0.887,1.01,1.11,0.83,0.83,0.95,0.985,0.957,1.02,0.966,0.974,0.974,,0.949,0.886
EPLC-272H,1.11,0.745,0.985,0.894,0.984,0.753,0.0869,0.969,1.18,0.962,0.806,0.982,1,1.09,0.932,0.958,0.906,1.13,0.889,0.89,0.674
H3255,1.21,0.999,1.04,1.05,0.838,,0.871,0.963,1.05,0.875,1.07,0.917,0.947,0.905,0.878,0.921,0.926,0.841,0.781,0.978,0.858
HARA,1.1,1.07,1.04,0.979,0.923,0.598,0.805,0.963,1.12,1.05,0.929,0.931,0.908,0.873,0.911,0.88,0.99,1.12,0.878,1.03,0.821
